From patent US20060276455A1, “Use of a mast cell activation or degranulation blocking agent in the manufacture of a medicament for the treatment of cerebral ischemia” (priority 2003, published 2006)

Tests used:
[1] = tested on: focal cerebral ischemia in rats (middle cerebral artery occlusion); assay: Postischemic neutrophil response (Leder staining) after transient MCA occlusion; format: in vivo, rat; conditions: i.c.v. pretreatment, 4 h after MCAO, vs control
Source text: We used the suture MCA occlusion model with reperfusion, described elsewhere. Briefly, we exposed the right common carotid artery (CCA) and the right external carotid artery (ECA) through a ventral midline neck incision. We ligated the proximal CCA and the origin of the ECA. We inserted a 4-0 nylon mono-filament suture (Ethilon Nylon Suture, ETHICON) with its tip rounded by heating near a flame and then coated with silicone into the right CCA via an arteriectomy. Reperfusion was accomplished by withdrawing the suture occluder 60 minutes after MCAO, whereafter the animals were allowed to recover. Four hours after MCAO, the rats were killed by injecting intraperitoneally 120 mg of pentobarbital natrium (Mebumat). Cardiac perfusion was performed with the heart still beating but respiration ceased by infusing 250 mL of ice cold 0.9% saline at an inflow pressure of 100 mmHg into the arterial vascular system. […] The densities of intravascular and emigrated neutrophils were counted without prior knowledge of animal grouping in systematically placed target areas, the temporoparietal infarction core, the parasagittal infarct penumbra and the deep thalamic and basal ganglia. In each area, 60 to 100 microscopic fields of 0.1 mm^2 were counted and averaged for each location. […]

[2] = tested on: cerebral hemorrhage in rats; assay: Surgically induced cerebral hemorrhage (autologous blood injection), outcome at 24 h; conditions: i.c.v.
Procedure: In anesthesized rats, 2 craniotomies were performed for the introduction of drug infusion and blood. We injected 50 microliters of autologous arterial blood via stereotactically a Hamilton needle tip placed to the caudate putamen (6 mm from skull surface), a common location of spontaneous cerebral hemorrhages.
Animals were allowed to recover and 24 h later their level of neurological deterioration was rated on a 6-point scale: 5=dead, 4=stuporous, moribund, 3=hemiparetic with balance disturbance, 2=hemiparesis, 1=paresis of contralateral paw, 0=normal. The mortality was also recorded by 24 hours.

## O=C(O)c1cc(=O)c2c(OCC(O)COc3cccc4oc(C(=O)O)cc(=O)c34)cccc2o1 [disodium cromoglycate]
[1]
  decrease of density of neutrophils in the infarcted hemisphere: 37%
[2]; 24 h, saline-treated 3.2, p<0.01
  six-point neurological score (0=normal, 5=dead), average: 0.89
[2]; saline-treated group 40%
  mortality by 24 hours: 0%
